Results reported in patent publication US20250388602A1 (Genase Therapeutics B.V., priority 2022, published 2025).

Tests used:
in vitro [1] = test: in vitro
recombinant human DHODH = recombinant human DHODH (Homo sapiens (Human), UniProt Q02127); test: DHODH enzyme assay (Assay A), DCIP absorbance; format: biochemical; settings: bins ≥10 nM-<100 nM and <10 nM; read-out: IC50 DHODH inhibition activity
CYP1A2 = CYP1A2 (Homo sapiens (Human), UniProt P05177); test: CYP inhibition in pooled human liver microsomes; format: in vitro ADME
Description: CYP inhibition: Co-incubation of compounds with P450 enzyme-selective substrates was performed using pooled human liver microsomes (Cat. No. H0610, Xenotech), to determine their potential to cause drug-drug interactions. The assay was performed in duplicate. The formation of acetaminophen, 7′-hydoxycoumarin, hydrobupropion, N-desethylamodiaquine, 4′-hydroxydiclofenac, 4′-hydroxymephenytoin, 1′-hydroxybufuralol, 6″-hydroxychlorzoxazone were quantified as markers for CYP1A2, CYP2A6, […], CYP2C8, CYP2C9, CYP2C19, […], CYP2E1, respectively. CYP3A4 inhibition was measured using 2 substrates, measuring the formation of […] (3A4-T), and 1′-hydroxymidazolam (3A4-M). The incubation was carried out in 96 deep well plates each well containing: 179 μL of the master solution (0.2 mg/mL microsomes plus CYP substrate (see below for final substrate concentration and incubation time for the different CYP assays)) in 100 mM phosphate buffer and 1 μL of the compound working solution or vehicle. The final concentrations of the compounds in the assay was 30 μM when using a single dose or 0.1, 0.3, 1, 3, 10 and 30 μM for a dose response.
The incubation plate was placed into a water bath and pre-warmed at 37° C. for 5 minutes before the reactions were started by the addition of 20 μL of 10 mM NADPH solution and incubated at 37° C. for the time listed above. […]

in vitro [2] = test: in vitro; remark: listed apart in the source
[3] = cytotoxicity in mock-infected A549 cells (MTS); format: cell-based; settings: human
Description: The lung cancer epithelial cell line A549 was obtained from the American Type Culture Collection (ATCC; Rockville, MD, USA) and cultured in MEM medium (Gibco BRL, Gaithersburg, MD, USA) with 10% fetal calf serum (FCS; Gibco BRL), 2 mM L-glutamine (Gibco BRL) and 0.075% sodium bicarbonate (Gibco BRL).
The anti-ZIKV and anti-DENV-2 activity in A549 cells was determined using a tetrazolium-based colorimetric cytopathic effect (CPE) reduction assay. […] A549 cells (1.5×10^4 cells in 100 μL cell culture medium) were seeded in 96-well flat bottom plates (TPP, Trasadingen, Switzerland) and incubated overnight to allow the cells to grow to confluency. Drug dilutions were prepared in culture medium where FCS concentration was decreased to 2% and threefold diluted in the plates (in duplicate). […] Three hours after MTS incubation, virus was inactivated using 0.5% Triton X-100 (Thermo Fisher Scientific, Waltham, MA, USA) and the absorbance was then recorded at 490 nm with a 96-well plate reader and compared with four cell control replicates (cells without virus and drugs) and four virus control wells (cells with virus but without drug). […] Absorbance was recorded using the VersaMax ELISA™ microplate reader (Molecular Devices) and analyzed with the Softmax Pro® software (Molecular Devices, Version 4.0). […]

Chain of recombinant human DHODH (Q02127 whole entry): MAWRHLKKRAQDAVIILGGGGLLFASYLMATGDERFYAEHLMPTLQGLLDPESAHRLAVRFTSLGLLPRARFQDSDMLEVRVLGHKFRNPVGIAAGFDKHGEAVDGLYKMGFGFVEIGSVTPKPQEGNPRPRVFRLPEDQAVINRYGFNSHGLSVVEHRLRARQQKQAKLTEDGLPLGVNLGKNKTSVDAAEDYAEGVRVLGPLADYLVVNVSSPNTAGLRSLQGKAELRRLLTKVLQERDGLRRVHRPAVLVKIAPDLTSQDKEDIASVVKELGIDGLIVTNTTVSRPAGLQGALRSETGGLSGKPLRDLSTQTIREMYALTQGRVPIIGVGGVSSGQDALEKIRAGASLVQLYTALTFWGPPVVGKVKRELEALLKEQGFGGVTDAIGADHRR
Chain of CYP1A2 (P05177 whole entry): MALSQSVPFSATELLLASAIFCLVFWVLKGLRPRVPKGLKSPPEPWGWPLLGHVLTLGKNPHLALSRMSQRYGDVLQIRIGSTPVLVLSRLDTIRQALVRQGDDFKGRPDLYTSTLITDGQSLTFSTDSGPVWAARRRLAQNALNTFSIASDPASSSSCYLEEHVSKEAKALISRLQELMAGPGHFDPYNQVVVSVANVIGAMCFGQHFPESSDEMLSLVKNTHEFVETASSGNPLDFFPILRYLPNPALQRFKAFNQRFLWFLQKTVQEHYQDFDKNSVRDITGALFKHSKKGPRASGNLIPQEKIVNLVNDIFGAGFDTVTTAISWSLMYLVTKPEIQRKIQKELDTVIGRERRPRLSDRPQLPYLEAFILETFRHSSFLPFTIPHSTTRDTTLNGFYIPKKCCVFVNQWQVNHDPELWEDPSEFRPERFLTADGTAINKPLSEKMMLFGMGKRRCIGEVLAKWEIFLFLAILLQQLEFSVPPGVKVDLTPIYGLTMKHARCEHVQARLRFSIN

Compound: COc1ccc(F)c(-n2ncc3c2COC[C@H]3NC(=O)c2ncn3c2CCCC3)c1Cl (single isomer, unassigned) [Ex-9]
- hHEPs % remaining (in vitro [1]; % remaining at 120 min, 1 μM): 87%
- half-life at 1 μM (in vitro [1]; human, hepatocytes): > 600 min
- IC50 (recombinant human DHODH): < 10 nM
- IC50 (CYP1A2): > 30 µM
- HLM % remaining (in vitro [2]; % remaining at 60 min, 1 μM): 100%
- half-life at 1 μM (in vitro [2]; both, human, pooled liver microsomes): > 365 min
- CC50 [3]: 3.65 ± 0.1 µM
